Patent US20080096903A1, “SULFAMOYL-CONTAINING DERIVATIVES AND USES THEREOF” (Wyeth, priority 2006, published 2008)
pIC50: −log10 of the molar value.

Assays:
Hsp90α Protein = Hsp90α Protein (Homo sapiens, UniProt P07900); experiment: Hsp90 CE Competitive Binding Assay (displacement of fluorescein-labelled geldanamycin)
Description: Hsp90 CE Competitive Binding Assay: […]
b) “Competitor”, fluorescein-labelled geldanamycin • The competitor was synthesized as described by Llauger-Bufi et al, Bioorg.
The electrophoresis running buffer (RB) is comprised of 200 mM CAPSO, pH 9.2 (pH-adjusted with Trizma base). The sample buffer (SB) is comprised of 10 mM Trizma base, pH 8.0 (pH-adjusted with glacial acetic acid), 5 mM MgCl2, 5 mM DTT, and BSA and Triton as noted.
Capillary electrophoresis was performed on Cetek Gemini Systems™ using laser-induced fluorescence detection. Fused-silica capillaries (50 μm I.D.×30 cm, approximately 10 cm length from end to detection window) were internally coated using Cetek's proprietary methods.
Each sample (i.e., fermentation extract, partially-purified fraction, or compound mixture, or pure compound) to be assayed is prediluted 1:20 or 1:40 in SB containing 0.02% Triton. 1 μl of each prediluted sample is then deposited into a 96-well microtiter plate and mixed with 8 μl of Target Cocktail. These samples can be stored at 4° C. until ready for assay.
When ready for analysis, the plates are transferred to the deck of a Gemini System. To each mixture of sample and target, 1 μl of Competitor Cocktail is added and mixed thoroughly. This reaction mixture is allowed to incubate for 8 minutes on the refrigerated deck of the Gemini System (temperature 8° C.). During incubation, the CE capillary is rinsed for 30 seconds with RB containing 2 mg/ml BSA, and then 60 seconds with RB. At the end of incubation, a small plug of the reaction mixture is then injected into the capillary at low pressure (0.5 psi) for 7 seconds. The loaded capillary is then dipped into reservoirs containing RB and the sample is electrophoresed at 10 kV for 6 minutes at a temperature of 8° C.
The electrophoretic separation produces a graphical profile known as an “electropherogram,” which contains a peak representing the intact complex between Hsp90 and competitor, and a smaller series (typically, a triplet) of peaks representing unbound competitor. […] Dose-response experiments, which evaluate the degree of competitor displacement as a function of sample concentration, are subsequently run in triplicate to validate hits and to quantitate their potencies, which are expressed as IC50 values.
Negative controls are comprised of 0.5% DMSO, and positive controls are comprised of 0.1 μg/ml 17-AAG.

mice = settings: Takahashi and Bepu, J. Antibiotics 1982; cited from earlier work
protein synthesis = settings: literature reports; cited from earlier work
HSP90alpha protein = HSP90alpha protein (Homo sapiens, UniProt P07900); experiment: Hsp90alpha and BODIPY-Geldanamycin Fluorescent Polarization Binding Assay; settings: 5 nM BODIPY GA, 30 nM Hsp90alpha
Description: Hsp90alpha and BODIPY-Geldanamycin Fluorescent Polarization Binding Assay Materials • HSP90alpha protein (Stressgen SPP-776) and BODIPY Labeled Geldanamycin (GA) was added to assay buffer stock (stored at 4 C): 20 mM Hepes pH 7.3, 50 mM KCl, 20 mM NaMoO4, 0.01% NP40 • Working Assay buffer: assay buffer stock @RT with freshly added 2 mM DTT and 0.1 mg/ml • Bovine Gamma Globulin (Panvera P2045, 5 mg/ml) • Black 96well micro titer plates (Thermo #7205, vwr# 25227-304) Sample Set-up and Controls • Competitive Binding Samples: 5 nM GA and 30 nM Hsp90alpha and inhibitor • Control Samples: buffer only, BODIPY GA only, BODIPY GA plus Hsp90alpha, BODIPY GA plus • Hsp90alpha and unlabeled GA Protocol 1. Prepare working assay buffer with Hsp90alpha protein at a final concentration of 30 nM per well in 100 ul final volume. Add 85 ul of this solution per well to 96 well black micro titer plate. (for 20 ml assay buffer add 400 ul 1 M DTT stk and 400 ul 5 mg/ml BGG stk) (1 mg/ml Hsp90 stock=˜11 uM protein; want 0.03 uM final in 100 ul, so adjust to 0.035 uM in 85 ul which is 1:314 fold dilution into assay buffer=64 ul protein plus 20 ml buffer to dispense 85 ul/well). 2. Add 5 ul of inhibitors @ 20× final desired concentration. For 10 ug/ml start, the overall dilution from 1 mg/ml stocks is 1:100. […] Use Wallac Envision to read FP using protocol: JENs FP FITC Dual in room 4603. (parameters are: mirror module-FITC FP dual, excitation filter-FITC FP 480, emission filters-FITC FP P-pol 535 and FITC FP S-pol 535) Analysis of Results The Envision instrument automatically prepares a calculation based on the readings it obtains from the two measurements. […] By adjusting G to 0.96 or 0.97, the FP measurement calculation will result in a “0” reading for BODIPY GM without Hsp90. […] IC50s will be determined manually from percent polarization values plotted in Microsoft Excel. […]

| pIC50 (HSP90alpha protein) | SMILES | HSP90 inhibition / binding (in words) (Hsp90α Protein) | pIC50 (Hsp90α Protein; initial structure activity relationship table, read-out: HSP90 CE IC50) | toxicity to mice (mice) | inhibition of protein synthesis (protein synthesis) |
| --- | --- | --- | --- | --- | --- |
|  | Nc1nc(Cl)nc2c1ncn2C1OC(COS(N)(=O)=O)C(O)C1O (stereo not shown) [CSA, 2-chloro-5′-sulfamoyladenosine, reference compound] | inhibits HSP90 | 6.00 | toxic to mice | inhibit protein synthesis |
| 6.41 | Nc1nc(F)nc2c1nc(Cc1cc3c(cc1I)OCO3)n2Cc1cn(CCCOS(N)(=O)=O)nn1 [Example 16B, Sulfamic Acid 3-[4-({6-amino-2-fluoro-8-[(6-iodo-1,3-benzodioxol-5-yl)methyl]-9H-purin-9-yl}methyl)-1H-1,2,3-triazol-1-yl]propyl ester] |  |  |  |  |
| 6.74 | Nc1nc(F)nc2c1nc(Cc1cc3c(cc1I)OCO3)n2Cc1cn(CCOS(N)(=O)=O)nn1 [Example 16A, Sulfamic Acid 2-(4-((6-amino-2-fluoro-8-((6-iodobenzo[d][1,3]dioxol-5-yl)methyl)-9H-purin-9-yl)methyl)-1H-1,2,3-triazol-1-yl)ethyl ester] |  |  |  |  |
| 6.85 | Nc1nc(F)nc2c1nc(Cc1cc3c(cc1I)OCO3)n2CC#CCN1CCC(OS(N)(=O)=O)C1 (stereo not shown) [Example 160] |  |  |  |  |
